*1 amine or outer side, *2 acyl side, *3 side chain or, on linkers, in order; H or OH if unused. Where a SMILES comes first, the peptide text is derived from it. Side-chain parts run from the residue outwards. [ ]: non-standard residue; d: D form. The star is where a group is joined. X3 = CC(C)CCC[C@@H](C)[C@H]1CC[C@H]2[C@@H]3CC=C4C[C@@H](OC(=O)CCOCCOCCOCCOCCNC(=O)C*)CC[C@]4(C)[C@H]3CC[C@]12C; γGlu = O=C(O)[C@H](CCC(=O)[*:2])N[*:1]; Palmitoyl = CCCCCCCCCCCCCCCC(=O)*

Seven compounds from patent publication US9593155B2, “Oxyntomodulin analogs” (priority 2009, dated 2017) can be followed below.

Data set [1] concerns human mast cell line LAD2. The data set is described as follows: mast cell degranulation counterscreen, beta-hexosaminidase release. It is filed as cell-based. The following applies: LAD2 cells, 30 minutes; read-out: Degranulation potency EC50. The method, then: LAD2 cells (50,000 cells/well, 96-well plate) were incubated with compounds for 30 minutes. The degranulation of LAD2 cells was determined by quantification of the β-hexosaminidase released into the supernatants and in cell lysates after hydrolysis of 4-methylumbelliferyl-N-acetyl-β-D-glucosaminide. Results are expressed as percentage of β-hexosaminidase release, calculated as percent of total content.
In general terms: Counterscreens check selectivity or assay interference.

The target in the next data set is hGLP-1R (Homo sapiens, UniProt P43220). The data set is described as follows: cell-based cAMP assay as described in WO2008101017 (Table 11), hGLP-1R. An excerpt: (§1) This example presents tables showing the in vitro potencies of various peptide analogs at the human GLP-1 receptor (hGLP-1R) and the human glucagon receptor (hGCGR).
Data set [2] in a line: pI of the peptide analogs. The following applies: Table 10.
The target in data set [3] is T1, hGCGR (Homo sapiens, UniProt P47871). The data set is described as follows: fluorescence cell based cAMP assay, CHO cells stably expressing GCGR. As to conditions: hGCGR + 20% plasma EC50, Table 10, 20% plasma. The method, then:
We initially screened peptides in fluorescence cell based assays that measure production of cyclic-AMP (cAMP), using CHO cell lines stably expressing either recombinant human GLP-1R or human GCGR. Determination of Mouse and human GLP-1R and GCGR Agonist Activity was essentially as follows. CHO cells stably expressing mouse or human GLP-1R or GCGR were grown in Iscove's Modified Dulbecco's Medium (IMDM), 10% FBS, 1 mM L-glutamine, penicillin-streptomycin (100 μ/mL) and 750 μg G418/mL for three-four days before harvesting using Enzymefree Dissociation Media (EFDM, Specialty Media). […] The assay was terminated with the addition of the LANCE kit Detection buffer as per the manufacturer's instructions. The plates were held an additional hour at room temperature, then increasing cAMP levels were detected by a decrease in TR-FRET signal as measured in an EnVision counter (PerkinElmer) in comparison to a standard curve of cAMP as per the manufacturer's instructions. Data were analyzed using the linear and nonlinear regression analysis software, GraphPad Prism.
The in vitro potencies shown in Table 10 or Table 11 were determined from the results of assays that were similar to either the cell-based cAMP assays described herein above (Table 10) or the cell-based cAMP assays described in International Published Application No. WO2008101017, which is incorporated herein in its entirety, in particular the cell-based cAMP assays described therein (Table 11).
A general note: cAMP levels reflect the balance of adenylyl cyclase and phosphodiesterase activity.

In data set [4] the target is T1, hGCGR. As to the kind of experiment: cell-based cAMP assay as described in WO2008101017 (Table 11), hGCGR.
From the text: as §1

T1 sequence (P47871 26-477): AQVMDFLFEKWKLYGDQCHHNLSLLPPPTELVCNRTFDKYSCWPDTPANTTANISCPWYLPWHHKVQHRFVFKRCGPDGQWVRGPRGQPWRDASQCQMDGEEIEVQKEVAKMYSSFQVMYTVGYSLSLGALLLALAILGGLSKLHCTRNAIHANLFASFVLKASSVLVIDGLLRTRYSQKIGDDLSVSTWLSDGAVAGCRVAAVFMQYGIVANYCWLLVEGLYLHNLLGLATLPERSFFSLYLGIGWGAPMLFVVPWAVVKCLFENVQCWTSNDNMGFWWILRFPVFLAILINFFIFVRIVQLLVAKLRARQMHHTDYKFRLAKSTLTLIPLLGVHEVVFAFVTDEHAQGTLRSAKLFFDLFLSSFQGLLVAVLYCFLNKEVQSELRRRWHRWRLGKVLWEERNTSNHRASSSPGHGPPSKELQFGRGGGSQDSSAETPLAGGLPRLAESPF
Chain of hGLP-1R (P43220 24-463): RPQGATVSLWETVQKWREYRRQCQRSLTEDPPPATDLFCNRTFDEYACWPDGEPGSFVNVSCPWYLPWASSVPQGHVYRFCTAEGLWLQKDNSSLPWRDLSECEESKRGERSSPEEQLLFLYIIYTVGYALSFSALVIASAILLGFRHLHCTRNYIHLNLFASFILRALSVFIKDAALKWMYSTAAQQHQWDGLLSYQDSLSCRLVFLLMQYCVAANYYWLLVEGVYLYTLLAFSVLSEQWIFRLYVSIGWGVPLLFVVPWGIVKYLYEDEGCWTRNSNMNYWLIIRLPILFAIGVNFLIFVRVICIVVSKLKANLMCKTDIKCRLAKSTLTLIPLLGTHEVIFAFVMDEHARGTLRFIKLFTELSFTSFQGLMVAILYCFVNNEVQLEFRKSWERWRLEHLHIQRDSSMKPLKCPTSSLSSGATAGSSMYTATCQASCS

By EC50 is commonly meant the concentration that produces a half-maximal response. As to `CSCC[C@H](NC(=O)[C@H](CC(C)C)NC(=O)[C@H](Cc1c[nH]c2ccccc12)NC(=O)[C@H](CCC(N)=O)NC(=O)[C@@H](NC(=O)[C@H](Cc1ccccc1)NC(=O)[C@H](CC(=O)O)NC(=O)[C@H](CCC(N)=O)NC(=O)[C@H](C)NC(=O)[C@H](C)NC(=O)[C@H](CCC(=O)O)NC(=O)[C@H](CO)NC(=O)[C@H](CC(=O)O)NC(=O)[C@H](CC(C)C)NC(=O)[C@H](Cc1ccc(O)cc1)NC(=O)[C@H](CCCCN)NC(=O)[C@H](CO)NC(=O)[C@H](Cc1ccc(O)cc1)NC(=O)[C@H](CC(=O)O)NC(=O)[C@H](CO)NC(=O)[C@@H](NC(=O)[C@H](Cc1ccccc1)NC(=O)[C@@H](NC(=O)CNC(=O)[C@H](CCC(N)=O)NC(=O)[C@@H](CO)NC(=O)[C@@H](N)Cc1c[nH]cn1)[C@@H](C)O)[C@@H](C)O)C(C)C)C(=O)N[C@@H](CC(N)=O)C(=O)N[C@H](C(=O)N[C@@H](CCCCN)C(=O)N[C@@H](CSCC(=O)NCCOCCOCCOCCOCCC(=O)O[C@H]1CC[C@@]2(C)C(=CC[C@H]3[C@@H]4CC[C@H]([C@H](C)CCCC(C)C)[C@@]4(C)CC[C@@H]32)C1)C(N)=O)[C@@H](C)O` [OXM303] (H-H[dS]QGTFTSDYSKYLDSEAAQDFVQWLMNTKC(X3)-NH2; N-terminus assumed), the EC50 in data set [1] turned out to be 100 nM.
On the same count and under the same terms, as for `CCCCCCCCCCCCCCCC(=O)N[C@@H](CCC(=O)N[C@@H](CCC(=O)NCCCC[C@H](NC(=O)[C@H](C)NC(=O)[C@H](CCCNC(=N)N)NC(=O)[C@H](CCCNC(=N)N)NC(=O)[C@H](CO)NC(=O)[C@H](CC(=O)O)NC(=O)[C@H](CC(C)C)NC(=O)[C@H](Cc1ccc(O)cc1)NC(=O)[C@H](CCCCN)NC(=O)[C@H](CO)NC(=O)[C@H](Cc1ccc(O)cc1)NC(=O)[C@H](CC(=O)O)NC(=O)[C@H](CO)NC(=O)[C@@H](NC(=O)[C@H](Cc1ccccc1)NC(=O)[C@@H](NC(=O)CNC(=O)[C@H](CCC(N)=O)NC(=O)[C@@H](CO)NC(=O)[C@@H](N)Cc1c[nH]cn1)[C@@H](C)O)[C@@H](C)O)C(=O)N[C@@H](CC(=O)O)C(=O)N[C@@H](Cc1ccccc1)C(=O)N[C@H](C(=O)N[C@@H](CCC(N)=O)C(=O)N[C@@H](Cc1c[nH]c2ccccc12)C(=O)N[C@@H](CC(C)C)C(=O)N[C@@H](CCSC)C(=O)N[C@@H](CC(N)=O)C(=O)N[C@H](C(=O)N[C@@H](CCCCN)C(=O)N[C@@H](CCC(N)=O)C(=O)O)[C@@H](C)O)C(C)C)C(=O)O)C(=O)O` [OXM408], the figure is over 10000 nM.
Take `CCCCCCCCCCCCCCCC(=O)N[C@@H](CCC(=O)N[C@@H](CCC(=O)NCCCC[C@H](NC(=O)[C@H](CC(=O)O)NC(=O)[C@H](CO)NC(=O)[C@@H](NC(=O)[C@H](Cc1ccccc1)NC(=O)[C@@H](NC(=O)CNC(=O)[C@H](CCC(N)=O)NC(=O)[C@@H](CO)NC(=O)[C@@H](N)Cc1c[nH]cn1)[C@@H](C)O)[C@@H](C)O)C(=O)N[C@@H](CO)C(=O)N[C@@H](CCCCN)C(=O)N[C@@H](Cc1ccc(O)cc1)C(=O)N[C@@H](CC(C)C)C(=O)N[C@@H](CC(=O)O)C(=O)NC(C)(C)C(=O)N[C@@H](CCCNC(=N)N)C(=O)N[C@@H](CCCNC(=N)N)C(=O)N[C@@H](C)C(=O)N[C@@H](CCC(N)=O)C(=O)N[C@@H](CC(=O)O)C(=O)N[C@@H](Cc1ccccc1)C(=O)N[C@H](C(=O)N[C@@H](CCC(N)=O)C(=O)N[C@@H](Cc1c[nH]c2ccccc12)C(=O)N[C@@H](CC(C)C)C(=O)N[C@@H](CCSC)C(=O)N[C@@H](CC(N)=O)C(=O)N[C@H](C(=O)N[C@@H](CCCCN)C(=O)N[C@@H](CCC(N)=O)C(=O)O)[C@@H](C)O)C(C)C)C(=O)O)C(=O)O` [OXM418]: the EC50 turned out to be 0.026 nM at hGLP-1R and 0.3 nM on hGCGR [3]. In addition, the pI in data set [2] worked out at 5.5.
Regarding `CCCCCCCCCCCCCCCCCC(=O)N[C@@H](CCC(=O)N[C@@H](CCC(=O)NCCCC[C@H](NC(=O)[C@H](CC(=O)O)NC(=O)[C@H](CO)NC(=O)[C@@H](NC(=O)[C@H](Cc1ccccc1)NC(=O)[C@@H](NC(=O)CNC(=O)[C@H](CCC(N)=O)NC(=O)[C@@H](CO)NC(=O)[C@@H](N)Cc1c[nH]cn1)[C@@H](C)O)[C@@H](C)O)C(=O)N[C@@H](CO)C(=O)N[C@@H](CCCCN)C(=O)N[C@@H](Cc1ccc(O)cc1)C(=O)N[C@@H](CC(C)C)C(=O)N[C@@H](CC(=O)O)C(=O)NC(C)(C)C(=O)N[C@@H](CCCNC(=N)N)C(=O)N[C@@H](CCCNC(=N)N)C(=O)N[C@@H](C)C(=O)N[C@@H](CCC(N)=O)C(=O)N[C@@H](CC(=O)O)C(=O)N[C@@H](Cc1ccccc1)C(=O)N[C@H](C(=O)N[C@@H](CCC(N)=O)C(=O)N[C@@H](Cc1c[nH]c2ccccc12)C(=O)N[C@@H](CC(C)C)C(=O)N[C@@H](CCSC)C(=O)N[C@@H](CC(N)=O)C(=O)N[C@H](C(=O)N[C@@H](CCCCN)C(=O)N[C@@H](CCC(N)=O)C(=O)O)[C@@H](C)O)C(C)C)C(=O)O)C(=O)O` [MM132], the response on hGCGR [4] was half-maximal at 0.004 nM (EC50).
For the compound `CCCCCCCCCCCCCCCC(=O)N[C@@H](CCC(=O)N[C@@H](CCC(=O)NCCCC[C@H](NC(=O)[C@H](C)NC(=O)[C@H](CCCNC(=N)N)NC(=O)[C@H](CCCNC(=N)N)NC(=O)[C@H](CCC(=O)O)NC(=O)[C@H](CC(=O)O)NC(=O)[C@H](CC(C)C)NC(=O)[C@H](Cc1ccc(O)cc1)NC(=O)[C@H](CCCCN)NC(=O)[C@H](CO)NC(=O)[C@H](Cc1ccc(O)cc1)NC(=O)[C@H](CC(=O)O)NC(=O)[C@H](CO)NC(=O)[C@@H](NC(=O)[C@H](Cc1ccccc1)NC(=O)[C@@H](NC(=O)CNC(=O)[C@H](CCC(N)=O)NC(=O)[C@@H](CO)NC(=O)[C@@H](N)Cc1c[nH]cn1)[C@@H](C)O)[C@@H](C)O)C(=O)N[C@@H](CC(=O)O)C(=O)N[C@@H](Cc1ccccc1)C(=O)N[C@H](C(=O)N[C@@H](CCC(N)=O)C(=O)N[C@@H](Cc1c[nH]c2ccccc12)C(=O)N[C@@H](CC(C)C)C(=O)N[C@@H](CCSC)C(=O)N[C@@H](CC(N)=O)C(=O)N[C@H](C(=O)N[C@@H](CCCCN)C(N)=O)[C@@H](C)O)C(C)C)C(=O)O)C(=O)O` [OXM410] (H-H[dS]QGTFTSDYSKYLDERRAK([γGlu-γGlu-Palmitoyl])DFVQWLMNTK-NH2; N-terminus assumed), the 50% effective concentration (EC50) in data set [1] was over 10000 nM.
In turn, `CCCCCCCCCCCCCCCC(=O)N[C@@H](CCC(=O)N[C@@H](CCC(=O)NCCCC[C@H](NC(=O)[C@H](CC(=O)O)NC(=O)[C@H](CO)NC(=O)[C@@H](NC(=O)[C@H](Cc1ccccc1)NC(=O)[C@@H](NC(=O)CNC(=O)[C@H](CCC(N)=O)NC(=O)[C@@H](CO)NC(=O)[C@@H](N)Cc1c[nH]cn1)[C@@H](C)O)[C@@H](C)O)C(=O)N[C@@H](CO)C(=O)N[C@@H](CCCCN)C(=O)N[C@@H](Cc1ccc(O)cc1)C(=O)N[C@@H](CC(C)C)C(=O)N[C@@H](CC(=O)O)C(=O)N[C@@H](CCC(=O)O)C(=O)N[C@@H](CCCNC(=N)N)C(=O)N[C@@H](CCCNC(=N)N)C(=O)N[C@@H](C)C(=O)N[C@@H](CCC(N)=O)C(=O)N[C@@H](CC(=O)O)C(=O)N[C@@H](Cc1ccccc1)C(=O)N[C@H](C(=O)N[C@@H](CCC(N)=O)C(=O)N[C@@H](Cc1c[nH]c2ccccc12)C(=O)N[C@@H](CC(C)C)C(=O)N[C@@H](CCSC)C(=O)N[C@@H](CC(N)=O)C(=O)N[C@H](C(=O)N[C@@H](CCCCN)C(N)=O)[C@@H](C)O)C(C)C)C(=O)O)C(=O)O` [OXM411] (H-H[dS]QGTFTSDK([γGlu-γGlu-Palmitoyl])SKYLDERRAQDFVQWLMNTK-NH2; N-terminus assumed) had a pI in data set [2] of 5.4. Also, the half-maximal effective concentration (EC50) in data set [1] was over 10000 nM.
Compound `CCCCCCCCCCCCCC(=O)N[C@@H](CCC(=O)N[C@@H](CCC(=O)NCCCC[C@H](NC(=O)[C@H](CC(=O)O)NC(=O)[C@H](CO)NC(=O)[C@@H](NC(=O)[C@H](Cc1ccccc1)NC(=O)[C@@H](NC(=O)CNC(=O)[C@H](CCC(N)=O)NC(=O)[C@@H](CO)NC(=O)[C@@H](N)Cc1c[nH]cn1)[C@@H](C)O)[C@@H](C)O)C(=O)N[C@@H](CO)C(=O)N[C@@H](CCCCN)C(=O)N[C@@H](Cc1ccc(O)cc1)C(=O)N[C@@H](CC(C)C)C(=O)N[C@@H](CC(=O)O)C(=O)NC(C)(C)C(=O)N[C@@H](CCCNC(=N)N)C(=O)N[C@@H](CCCNC(=N)N)C(=O)N[C@@H](C)C(=O)N[C@@H](CCC(N)=O)C(=O)N[C@@H](CC(=O)O)C(=O)N[C@@H](Cc1ccccc1)C(=O)N[C@H](C(=O)N[C@@H](CCC(N)=O)C(=O)N[C@@H](Cc1c[nH]c2ccccc12)C(=O)N[C@@H](CC(C)C)C(=O)N[C@@H](CCSC)C(=O)N[C@@H](CC(N)=O)C(=O)N[C@H](C(=O)N[C@@H](CCCCN)C(=O)N[C@@H](CCC(N)=O)C(=O)O)[C@@H](C)O)C(C)C)C(=O)O)C(=O)O` [MM121] registered an EC50 at hGCGR [4] of 0.006 nM.
